The record followed here is US7253187B2, “Heterocyclic inhibitors of ERK2 and uses thereof” (Vertex Pharmaceuticals Incorporated, priority 2001, dated 2007).

Usually Ki stands for a measure of affinity in units of concentration, obtained from inhibition or displacement.

SMILES strings stand for the structures.

Experiment [1] addresses ERK2 (Homo sapiens, UniProt P28482). Description: ERK2 inhibition assay (spectrophotometric coupled-enzyme assay). The note with it: read-out: ERK2 Inhibitory Activity (Ki class D-F). In kind it is biochemical. On the procedure:
The IC50 was evaluated from the rate data as a function of inhibitor concentration. […] The compound numbers correspond to the compound numbers in Table 1.

The target in experiment [2] is T1, GSK-3β (AA 1–420) (Homo sapiens, UniProt P49841).
T1 construct: GSK-3β (AA 1–420)
Briefly: GSK-3 inhibition assay (coupled enzyme system). The note with it: read-out: GSK3 Inhibitory Activity (Ki class). In kind it is biochemical. How it is done: Final substrate concentrations in the assay were 20 μM ATP (Sigma Chemicals, St Louis, Mo.) and 300 μM peptide (HSSPHQS(PO3H2)EDEEE, American Peptide, Sunnyvale, Calif.). Reactions were carried out at 30° C. and 20 nM GSK-3β. Final concentrations of the components of the coupled enzyme system were 2.5 mM phosphoenolpyruvate, 300 μM NADH, 30 μg/ml pyruvate kinase and 10 μg/ml lactate dehydrogenase.
An assay stock buffer solution was prepared containing all of the reagents listed above with the exception of ATP and the test compound of interest. The assay stock buffer'solution (175 μl) was incubated in a 96 well plate with 5 μl of the test compound of interest at final concentrations spanning 0.002 μM to 30 μM at 30° C. for 10 min. […] The reaction was initiated by the addition of 20 μl of ATP (final concentration 20 μM). Rates of reaction were obtained using a Molecular Devices Spectramax plate reader (Sunnyvale, Calif.) over 10 min at 30° C. The Ki values were determined from the rate data as a function of inhibitor concentration.
The compound numbers correspond to the compound numbers in Table 1.

Sequence of ERK2 (P28482 whole entry): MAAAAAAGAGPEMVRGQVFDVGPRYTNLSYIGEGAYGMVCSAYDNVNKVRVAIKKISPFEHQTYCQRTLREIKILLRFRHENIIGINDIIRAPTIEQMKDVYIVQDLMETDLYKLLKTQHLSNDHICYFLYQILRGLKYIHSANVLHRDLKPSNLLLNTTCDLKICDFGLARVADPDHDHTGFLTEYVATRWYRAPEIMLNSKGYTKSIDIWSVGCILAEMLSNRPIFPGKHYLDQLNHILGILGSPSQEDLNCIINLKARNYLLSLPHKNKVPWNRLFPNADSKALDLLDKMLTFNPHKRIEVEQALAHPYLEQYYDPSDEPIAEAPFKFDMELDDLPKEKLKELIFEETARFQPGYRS
T1 sequence (P49841 whole entry, species assumed, the tested form may be a part): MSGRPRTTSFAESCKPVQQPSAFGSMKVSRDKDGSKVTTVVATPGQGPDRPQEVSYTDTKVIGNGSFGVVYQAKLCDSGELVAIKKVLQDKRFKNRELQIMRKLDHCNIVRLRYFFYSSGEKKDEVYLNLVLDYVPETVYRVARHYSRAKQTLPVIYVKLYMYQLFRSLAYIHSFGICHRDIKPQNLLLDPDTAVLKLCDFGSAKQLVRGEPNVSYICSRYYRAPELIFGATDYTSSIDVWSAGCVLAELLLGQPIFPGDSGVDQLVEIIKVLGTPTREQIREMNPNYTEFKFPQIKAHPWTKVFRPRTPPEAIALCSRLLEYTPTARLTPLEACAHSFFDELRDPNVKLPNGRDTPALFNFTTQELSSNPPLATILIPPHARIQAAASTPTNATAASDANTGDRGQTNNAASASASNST

For the compound `Cc1cnc(NC(CO)CC2CC2)nc1-c1c[nH]c(C(=O)NC(CO)c2ccccc2)c1` (stereo not drawn) [III-a-193, 4-[2-(2-Cyclopropyl-1-hydroxymethyl-ethylamino)-5-methyl-pyrimidin-4-yl]-1H-pyrrole-2-carboxylic acid (2-hydroxy-1-phenyl-ethyl)-amide], the Ki is less than 100 nM in experiment [1] and 100 to 1000 nM in experiment [2].

For the compound `Cc1cnc(Nc2cccc(C)c2C)nc1-c1c[nH]c(C(=O)NC(CO)c2ccccc2)c1` (stereo not drawn) [III-a-194, 4-[2-(2,3-Dimethyl-phenylamino)-5-methyl-pyrimidin-4-yl]-1H-pyrrole-2-carboxylic acid (2-hydroxy-1-phenyl-ethyl)-amide], the inhibition constant (Ki) in experiment [1] and in experiment [2] was less than 100 nM throughout.

With `Cc1cnc(NC(CO)C(C)C)nc1-c1c[nH]c(C(=O)NC(CO)c2ccccc2)c1` (stereo not drawn) [III-a-196, 4-[2-(1-Hydroxymethyl-2-methyl-propylamino)-5-methyl-pyrimidin-4-yl]-1H-pyrrole-2-carboxylic acid (2-hydroxy-1-phenyl-ethyl)-amide], the Ki in experiment [1] was less than 100 nM; in experiment [2], greater than 1000 nM.

On to `CCNc1ncc(C)c(-c2c[nH]c(C(=O)NC(CO)c3cccc(C(F)(F)F)c3)c2)n1` (stereo not drawn) [III-a-198, 4-(2-Ethylamino-5-methyl-pyrimidin-4-yl)-1H-pyrrole-2-carboxylic acid [2-hydroxy-1-(3-trifluoromethyl-phenyl)-ethyl]-amide], for which the Ki in experiment [1] is less than 100 nM; in experiment [2], greater than 1000 nM.

Turning to `Cc1cnc(Nc2cccc(F)c2)nc1-c1c[nH]c(C(=O)NC(CO)c2cccc(C(F)(F)F)c2)c1` (stereo not drawn) [III-a-199, 4-[2-(3-Fluoro-phenylamino)-5-methyl-pyrimidin-4-yl]-1H-pyrrole-2-carboxylic acid [2-hydroxy-1-(3-trifluoromethyl-phenyl)-ethyl]-amide], the Ki in experiment [1] and in experiment [2] was less than 100 nM in each case.

As for `Cc1cnc(Nc2ccccc2Cl)nc1-c1c[nH]c(C(=O)NC(CO)c2cccc(C(F)(F)F)c2)c1` (stereo not drawn) [III-a-200, 4-[2-(2-Chloro-phenylamino)-5-methyl-pyrimidin-4-yl]-1H-pyrrole-2-carboxylic acid [2-hydroxy-1-(3-trifluoromethyl-phenyl)-ethyl]-amide], the inhibition constant (Ki) in experiment [1] was less than 100 nM; in experiment [2] it was greater than 1000 nM.

Regarding `Cc1cnc(NC(CO)c2ccccc2)nc1-c1c[nH]c(C(=O)NC(CO)c2cccc(C(F)(F)F)c2)c1` (stereo not drawn) [III-a-201, 4-[2-(2-Hydroxy-1-phenyl-ethylamino)-5-methyl-pyrimidin-4-yl]-1H-pyrrole-2-carboxylic acid [2-hydroxy-1-(3-trifluoromethyl-phenyl)-ethyl)-amide], the Ki is less than 100 nM in experiment [1] and 100 to 1000 nM in experiment [2].

Regarding `COc1ccccc1C(CO)NC(=O)c1cc(-c2nc(NC3CC3)ncc2C)c[nH]1` (stereo not drawn) [III-a-203, 4-(2-Cyclopropylamino-5-methyl-pyrimidin-4-yl)-1H-pyrrole-2-carboxylic acid [2-hydroxy-1-(2-methoxy-phenyl)-ethyl]-amide], the Ki in experiment [1] was less than 100 nM; in experiment [2] it was 100 to 1000 nM.

Take `CONc1ncc(C)c(-c2c[nH]c(C(=O)NC(CO)c3ccccc3)c2)n1` (stereo not drawn) [III-a-206, 4-(2-Methoxyamino-5-methyl-pyrimidin-4-yl)-1H-pyrrole-2-carboxylic acid (2-hydroxy-1-phenyl-ethyl)-amide]: the Ki in experiment [1] and in experiment [2] was less than 100 nM throughout.

On to `Cc1cnc(NOC(C)C)nc1-c1c[nH]c(C(=O)NC(CO)c2ccccc2)c1` (stereo not drawn) [III-a-207, 4-(2-Isopropoxyamino-5-methyl-pyrimidin-4-yl)-1H-pyrrole-2-carboxylic acid (2-hydroxy-1-phenyl-ethyl)-amide], for which the Ki is less than 100 nM in experiment [1] and 100 to 1000 nM in experiment [2].

Consider `Cc1cccc(C(CO)NC(=O)c2cc(-c3nc(Nc4cccc(N(C)C)c4)ncc3C)c[nH]2)c1` (stereo not drawn) [III-a-208], for which the Ki in experiment [1] and in experiment [2] was less than 100 nM throughout.

With `Cc1cccc(C(CO)NC(=O)c2cc(-c3nc(Nc4ccccc4Cl)ncc3C)c[nH]2)c1` (stereo not drawn) [III-a-209, 4-[2-(2-Chloro-phenylamino)-5-methyl-pyrimidin-4-yl]-1H-pyrrole-2-carboxylic acid (2-hydroxy-1-m-tolyl-ethyl)-amide], the Ki in experiment [1] and in experiment [2] was less than 100 nM in each case.

Consider `Cc1cccc(C(CO)NC(=O)c2cc(-c3nc(NC(CO)c4ccccc4)ncc3C)c[nH]2)c1` (stereo not drawn) [III-a-210, 4-[2-(2-Hydroxy-1-phenyl-ethylamino)-5-methyl-pyrimidin-4-yl]-1H-pyrrole-2-carboxylic acid (2-hydroxy-1-m-tolyl-ethyl)-amide], for which the figures for the Ki in experiment [1] and in experiment [2] were less than 100 nM and greater than 1000 nM, respectively.

On to `Cc1cccc(C(CO)NC(=O)c2cc(-c3nc(Nc4cccc(C)c4C)ncc3C)c[nH]2)c1` (stereo not drawn) [III-a-211, 4-[2-(2,3-Dimethyl-phenylamino)-5-methyl-pyrimidin-4-yl]-1H-pyrrole-2-carboxylic acid (2-hydroxy-1-m-tolyl-ethyl)-amide], for which the Ki in experiment [1] was less than 100 nM; in experiment [2], 100 to 1000 nM.

As for `Cc1cccc(C(CO)NC(=O)c2cc(-c3nc(Nc4cccc(F)c4)ncc3C)c[nH]2)c1` (stereo not drawn) [III-a-212, 4-[2-(3-Fluoro-phenylamino)-5-methyl-pyrimidin-4-yl]-1H-pyrrole-2-carboxylic acid (2-hydroxy-1-m-tolyl-ethyl)-amide], the Ki in experiment [1] and in experiment [2] was less than 100 nM in each case.

As for `CC(=O)Nc1ncc(C)c(-c2c[nH]c(C(=O)NC(CO)c3ccccc3)c2)n1` (stereo not drawn) [III-a-213, 4-(2-Acetylamino-5-methyl-pyrimidin-4-yl)-1H-pyrrole-2-carboxylic acid (2-hydroxy-1-phenyl-ethyl)-amide], the results for the Ki in experiment [1] and in experiment [2] were less than 100 nM and 100 to 1000 nM, respectively.

As for `Cc1cnc(Nc2cccnc2)nc1-c1c[nH]c(C(=O)NC(CO)c2ccccc2)c1` (stereo not drawn) [III-a-215, 4-[5-Methyl-2-(pyridin-3-ylamino)-pyrimidin-4-yl]-1H-pyrrole-2-carboxylic acid (2-hydroxy-1-phenyl-ethyl)-amide], the Ki in experiment [1] and in experiment [2] was less than 100 nM each time.

As for `Cc1cnc(NCC2CCCO2)nc1-c1c[nH]c(C(=O)NC(CO)c2ccccc2)c1` (stereo not drawn) [III-a-216, 4-{5-Methyl-2-[(tetrahydro-furan-2-ylmethyl)-amino]-pyrimidin-4-yl}-1H-pyrrole-2-carboxylic acid (2-hydroxy-1-phenyl-ethyl)-amide], the Ki in experiment [1] and in experiment [2] was less than 100 nM in each case.

In the case of `Cc1cnc(NCC2CCCO2)nc1-c1c[nH]c(C(=O)NC(CO)c2ccccc2)c1` (stereo not drawn) [III-a-217, 4-{5-Methyl-2-((tetrahydro-furan-2-ylmethyl)-amino]-pyrimidin-4-yl}-1H-pyrrole-2-carboxylic acid (2-hydroxy-1-phenyl-ethyl)-amide], the Ki in experiment [1] and in experiment [2] was less than 100 nM in each case.

Turning to `Cc1cccc(C(CO)NC(=O)c2cc(-c3nc(NC(C)CO)ncc3C)c[nH]2)c1` (stereo not drawn) [III-a-222, 4-[2-(2-Hydroxy-1-methyl-ethylamino)-5-methyl-pyrimidin-4-yl]-1H-pyrrole-2-carboxylic acid (2-hydroxy-1-m-tolyl-ethyl)-amide], the Ki is less than 100 nM in experiment [1] and 100 to 1000 nM in experiment [2].

In the case of `Cc1cccc(C(CO)NC(=O)c2cc(-c3nc(Nc4ccccc4C)ncc3C)c[nH]2)c1` (stereo not drawn) [III-a-223, 4-(5-Methyl-2-o-tolylamino-pyrimidin-4-yl)-1H-pyrrole-2-carboxylic acid (2-hydroxy-1-m-tolyl-ethyl)-amide], the inhibitory constant (Ki) in experiment [1] and in experiment [2] was less than 100 nM each time.
